Patent US9926293B2, “Multivalent RAS binding compounds” (THE TRUSTEES OF COLUMBIA UNIVERSITY IN THE CITY OF NEW YORK, priority 2014, dated 2018)

Tests used:
KRAS^G12D I36N = target: T1, KRAS^G12D I36N (Homo sapiens, UniProt P01116, G12D/I36N); experiment: Microscale thermophoresis on binding-site mutant KRAS^G12D I36N; settings: MST, 31MEW79 experiment of b434
T1 construct: His6 (N); made in house
Method: (§1) Mutagenesis of the KRAS^G12D plasmid was performed using a QuikChange XL site-directed mutagenesis kit from Agilent technologies, according to the manufacturer's protocol. Primers were designed using the Agilent QuikChange Primer Design application and purchased from Integrated DNA Technologies. KRAS^G12D D38A forward primer 5′ ATATGATCCAACAATAGAGGCTTCCTACAGGAAGCAAGTAG 3′ (SEQ ID NO: 66), KRAS^G12D D38A reverse primer 5′ CTACTTGCTTCCTGTAGGAAGCCTCTATTGTTGGATCATAT 3′ (SEQ ID NO: 67), KRAS^G12D I36N forward primer 5′ CATTTTGTGGACGAATATGATCCAACAAATGAGGATTCCTACAGG 3′ (SEQ ID NO: 68), KRAS^G12D I36N reverse primer 5′ CCTGTAGGAATCCTCATTTGTTGGATCATATTCGTCCACAAAATG 3′ (SEQ ID NO: 69). DNA sequencing was performed to confirm the correct amino acid sequence of the construct (GeneWiz, Inc.).
KRAS^G12D (250 μM) in 25 mM HEPES, 100 mM sodium chloride, 2 mM TCEP with 20 mM EDTA and 1 mM GppNHp was shaken at 220 rpm at 30° C. to remove the endogenous nucleotide, The solution was placed on ice for 2 minutes prior to the addition of 65 mM MgCl2. After an additional 10 minutes incubation on ice, 200 uL of a 10 uM solution of KRAS^G12D was combined with 200 uL of a 20 uM solution of NT-647-NHS-ester dye (from a 652.4 μM stock). The protein/dye mixture was rotated at 4° C. for 30 minutes, before being separated from the excess dye and buffer exchanged into 25 mM Tris, 100 mM sodium chloride, 2 mM TCEP, and 5 mM MgCl2 via a nap-5 column. The test compounds were arrayed across a 16-point dilution series consisting of 1.5% DMSO with 25 mM Tris, 100 mM NaCl, 2 mM TCEP, 5 mM MgCl2 and 0.05% tween-20. Thermophoretic movement of the fluorescently labeled protein with the inhibitors was performed using a Monolith NT.115 (Nanotemper Technologies). RALA and RHOA were purchased commercially from Abcam (RALA CN:ab102555, RHOA CN:ab101594). […]

KRAS^G12D⋅BODIPY-GTP = target: T2, KRAS^G12D⋅BODIPY-GTP (Homo sapiens, UniProt P01116, G12D); experiment: Nucleotide displacement assay with BODIPY-GTP (fluorescence polarization); assay type: binding; settings: 2.5 μM KRAS^G12D⋅BODIPY-GTP, 12 hours
T2 construct: made in house; host or cells: Escherichia coli BL21-Gold (DE3)
Method: Nucleotide Displacement Assay
To investigate whether compounds were binding to the same site as GTP, a fluorescent polarization assay was implemented using fluorescently-labeled BODIPY-GTP as a probe. When BODIPY-GTP is free in solution, it has a low polarization. However, when BODIPY-GTP is bound to K-Ras protein, the polarization intensity is high. K-Ras G12D bound to BODIPY-GTP was incubated with different concentrations of ligand or unlabeled GTP or GDP in buffer containing 25 mM Tris-HCl, pH 8, 100 mM NaCl, 5 mM MgCl2, 1 mM EDTA, and 1 mM TCEP. The final concentration of K-Ras G12D bound to BODIPY-GTP in each well was 2.5 μM. The samples were incubated at 25° C. for 12 hours with gentle shaking to allow for the slow intrinsic nucleotide release reaction to take place. The change in fluorescence was measured on a Victor3 plate reader (Perkin Elmer) in 384-well black low-volume plates (Corning, Inc.). The BODIPY-GTP fluorophore was excited at 485 nm and emission was monitored at 535 nm.

KRAS^G12D D38A = target: T3, KRAS^G12D D38A (Homo sapiens, UniProt P01116, D38A/G12D); experiment: Microscale thermophoresis on binding-site mutant KRAS^G12D D38A
T3 construct: His6 (N); made in house
Method: as §1
KRAS^G12D (250 μM) in 25 mM HEPES, 100 mM sodium chloride, 2 mM TCEP with 20 mM EDTA and 1 mM GppNHp was shaken at 220 rpm at 30° C. to remove the endogenous nucleotide, The solution was placed on ice for 2 minutes prior to the addition of 65 mM MgCl2. After an additional 10 minutes incubation on ice, 200 uL of a 10 uM solution of KRAS^G12D was combined with 200 uL of a 20 uM solution of NT-647-NHS-ester dye (from a 652.4 μM stock). The protein/dye mixture was rotated at 4° C. for 30 minutes, before being separated from the excess dye and buffer exchanged into 25 mM Tris, 100 mM sodium chloride, 2 mM TCEP, and 5 mM MgCl2 via a nap-5 column. The test compounds were arrayed across a 16-point dilution series consisting of 1.5% DMSO with 25 mM Tris, 100 mM NaCl, 2 mM TCEP, 5 mM MgCl2 and 0.05% tween-20. Thermophoretic movement of the fluorescently labeled protein with the inhibitors was performed using a Monolith NT.115 (Nanotemper Technologies). RALA and RHOA were purchased commercially from Abcam (RALA CN:ab102555, RHOA CN:ab101594).
(§2) A set of 45 of the closest matches (ranging from 0.85-0.97 Tanimoto coefficient) were synthesized (based on Scheme 2 with appropriate modifications) and tested for their ability to bind to KRAS^G12D by differential scanning fluorimetry.

[1] = target: T4, GTP-loaded KRAS^G12D / CRAF RBD interaction (Homo sapiens, UniProt P01116, G12D); experiment: In vitro RAS pulldown with CRAF RBD; assay type: biochemical; settings: in vitro pull-down
T4 construct: made in house; host or cells: Escherichia coli BL21-Gold (DE3)
Method: A 20 μM solution of KRAS^G12D in 50 mM HEPES, 200 mM sodium chloride, 2 mM TCEP with 1 mM EDTA and 1 mM GTP was gently rotated at 25° C. to remove the endogenous nucleotide. Magnesium chloride was then added to 5 mM and the resulting solution was rotated at 4° C. for 4 hours. The GTP-loaded KRAS^G12D was then diluted to 20 nM and incubated with the inhibitors and 5 μL of CRAF-RBD agarose beads (Millipore), 10 μL of RAF1-RBD agarose beads (EMD Millipore, CN: 14-278), or 100 nM RALGDS (Abcam, CN: ab132590) with 20 μL of glutathione beads for 2 hours. The beads were separated from the lysate via a 0.1 μm filter spin cup and centrifuging at 14,000-15,000 rpm. They were then washed twice with PBS before the addition of 1×SDS. The quantity of RAS in the samples was then analyzed using the previously described Western blotting procedure.
as §2

GTP-loaded KRAS G12D = target: T5, GTP-loaded KRAS G12D (Homo sapiens, UniProt P01116, G12D); experiment: Microscale thermophoresis, GTP-loaded KRAS G12D labeled with NT-647-maleimide; assay type: binding; settings: read-out: dissociation constant KD
T5 construct: made in house; host or cells: Escherichia coli BL21-Gold (DE3)
Method: Microscale Thermophoresis
KRAS^G12D (250 μM) in 25 mM HEPES, 100 mM sodium chloride, 2 mM TCEP with 20 mM EDTA and 1 mM GppNHp was shaken at 220 rpm at 30° C. to remove the endogenous nucleotide, The solution was placed on ice for 2 minutes prior to the addition of 65 mM MgCl2. […] The protein/dye mixture was rotated at 4° C. for 30 minutes, before being separated from the excess dye and buffer exchanged into 25 mM Tris, 100 mM sodium chloride, 2 mM TCEP, and 5 mM MgCl2 via a nap-5 column. The test compounds were arrayed across a 16-point dilution series consisting of 1.5% DMSO with 25 mM Tris, 100 mM NaCl, 2 mM TCEP, 5 mM MgCl2 and 0.05% tween-20. Thermophoretic movement of the fluorescently labeled protein with the inhibitors was performed using a Monolith NT.115 (Nanotemper Technologies). RALA and RHOA were purchased commercially from Abcam (RALA CN:ab102555, RHOA CN:ab101594).
as §2

GppNHp-bound KRAS^G12D = target: T6, GppNHp-bound KRAS^G12D (Homo sapiens, UniProt P01116, G12D); experiment: Binding to KRAS and measurement of dissociation constants (FIG. 4B-4C), GppNHp-bound; settings: read-out: dissociation constant KD
T6 construct: made in house; host or cells: Escherichia coli BL21-Gold (DE3)

GDP-bound KRAS^G12D = target: T7, GDP-bound KRAS^G12D (Homo sapiens, UniProt P01116, G12D); experiment: Binding to KRAS and measurement of dissociation constants (FIG. 4B-4C), GDP-bound; settings: read-out: dissociation constant KD
T7 construct: made in house; host or cells: Escherichia coli BL21-Gold (DE3)

NCCC[C@@H](NC(=O)CN1CCCNCC1)C(=O)NC1Cc2ccccc2C1 [Compound 31MEW79, (R)-2-(2-(1,4-diazepan-1-yl)ethanamido)-5-amino-N-(2,3-dihydro-1H-inden-2-yl)pentanamide]
Kd (KRAS^G12D I36N): 47 µM | displacement of BODIPY-GTP (KRAS^G12D⋅BODIPY-GTP): No displacement | loss in affinity (KRAS^G12D D38A; KRAS^G12D D38A and I36N vs KRAS^G12D): 1.5 to 3.0 fold | Kd (KRAS^G12D D38A; MST, 31MEW79 experiment of b434): 83 µM | CRAF-bound KRAS^G12D [1]: dose-dependent decrease | Kd (GTP-loaded KRAS G12D): 33 µM | Kd (GppNHp-bound KRAS^G12D): 3800 µM | Kd (GDP-bound KRAS^G12D): 7100 µM
